{"source": "patent US4370489A", "about": "“Herbicidal compounds” (Hoechst Aktiengesellschaft, priority 1976, dated 1983)", "key": {"Alopecurus": {"tested_on": "Alopecurus", "assay": "Post-emergence greenhouse pot trial, annual blackgrass (Example I, Table I)", "format": "in vivo, annual blackgrass (Alopecurus)", "conditions": "greenhouse pots, 4 weeks", "procedure": "(§1) Seeds of weed grasses were sown in pots filled with loamy soil and placed in the greenhouse for germination and emergence. As soon as the plants had developed 3 or 4 leaves, they were sprayed with wettable powder formulations, suspended in water, of compounds according to the invention.\n(§2) The results and also the results of all following examples were evaluated 4 weeks later according to the following scheme:\n(§3) 4 is still considered an acceptable herbicidal effect in weeds and a satisfactory preserving effect in crop plants (cf. Bolle, Nachrichtenblatt des Deutschen Pflanzenschutzdienstes 16, 1964, pages 92-94).\n(§4) Effect on weed grasses in a post-emergence trial in pots\n(§5) in the greenhouse (Evaluation scheme)"}, "Digitaria": {"tested_on": "Digitaria", "assay": "Post-emergence greenhouse pot trial, Digitaria (Example I, Table I)", "format": "in vivo", "conditions": "greenhouse pots, 4 weeks", "procedure": "as §1, §2, §3, §4, §5"}, "Echinochloa": {"tested_on": "Echinochloa", "assay": "Post-emergence greenhouse pot trial, Echinochloa (Example I, Table I)", "format": "in vivo", "conditions": "greenhouse pots, 4 weeks", "procedure": "as §1, §2, §3, §4, §5"}, "Setaria": {"tested_on": "Setaria", "assay": "Post-emergence greenhouse pot trial, Setaria (Example I, Table I)", "format": "in vivo", "conditions": "greenhouse pots, 4 weeks", "procedure": "as §1, §2, §3, §4, §5"}, "Lolium": {"tested_on": "Lolium", "assay": "Post-emergence greenhouse pot trial, Lolium (Example I, Table I)", "format": "in vivo", "conditions": "greenhouse pots, 4 weeks", "procedure": "as §1, §2, §3, §4, §5"}, "Avena fatua [1]": {"tested_on": "Avena fatua", "assay": "Post-emergence trial in two stages, pots on a site without roof, wild oat (Example II, Table II)", "format": "in vivo", "conditions": "for 90% effective dose: probit method; for Effect on wild oat (evaluation), Avena fatua: post-emergence", "procedure": "as §2\n(§6) The amounts of active compound required for a 90% effect, determined by the probit method (cf. Bliss, Annals of Applied Biology, 22 1935), show very distincly the difference between the compound of the invention and the comparative compound. […] None of the compounds did any harm to the wheat.\n(§7) Post-emergence treatment in two different stages of development\n(§8) Experiments in pots on a site without roof\n(§9) stage 1: 3 to 4 leaves with beginning growth of side\n(§10) stage 2: main tillering to terminated tillering."}, "spring wheat": {"tested_on": "spring wheat", "assay": "Post-emergence trial in two stages, pots on a site without roof, spring wheat (Example II, Table II)", "format": "in vivo", "procedure": "as §2, §6, §7, §8, §9, §10"}, "Avena fatua [2]": {"tested_on": "Avena fatua", "assay": "Post emergence treatment in two stages, boxes on a site without roof, wild oat (Table III)", "format": "in vivo", "conditions": "0.9 kg/hectare", "procedure": "as §2\nEffect on wild oat and sugar beet\nPost emergence treatment in two stages of development\nboxes 20 × 24 × 22 cm in size on a site without roof"}}, "data": [{"compound": "COC(=O)C(C)Oc1ccc(Oc2ccc(Br)cc2Cl)cc1", "note": "(stereo not drawn) [Compound 1a, Methyl-4-(2'-chloro-4'-bromophenoxy)-α-phenoxy-propionate]", "values": [{"measurement": "Effect on weed grasses (evaluation scheme number), Alopecurus", "setting": "Alopecurus; 0.15 kg/hectare", "value": "3 (95.0 to <.97.5)"}, {"measurement": "Effect on weed grasses (evaluation scheme number), Alopecurus", "setting": "Alopecurus; 0.62 kg/hectare", "value": "1 (100)"}, {"measurement": "Effect on weed grasses (evaluation scheme number), Alopecurus", "setting": "Alopecurus; 2.5 kg/hectare", "value": "1 (100)"}, {"measurement": "Effect on weed grasses (evaluation scheme number), Digitaria", "setting": "Digitaria; 0.15 kg/hectare", "value": "6 (75.0 to <85.0)"}, {"measurement": "Effect on weed grasses (evaluation scheme number), Digitaria", "setting": "Digitaria; 0.62 kg/hectare", "value": "1 (100)"}, {"measurement": "Effect on weed grasses (evaluation scheme number), Digitaria", "setting": "Digitaria; 2.5 kg/hectare", "value": "1 (100)"}, {"measurement": "Effect on weed grasses (evaluation scheme number), Echinochloa", "setting": "Echinochloa; 0.15 kg/hectare", "value": "2 (97.5 to <100)"}, {"measurement": "Effect on weed grasses (evaluation scheme number), Echinochloa", "setting": "Echinochloa; 0.62 kg/hectare", "value": "2 (97.5 to <100)"}, {"measurement": "Effect on weed grasses (evaluation scheme number), Echinochloa", "setting": "Echinochloa; 2.5 kg/hectare", "value": "1 (100)"}, {"measurement": "Effect on weed grasses (evaluation scheme number), Setaria", "setting": "Setaria; 0.15 kg/hectare", "value": "2 (97.5 to <100)"}, {"measurement": "Effect on weed grasses (evaluation scheme number), Setaria", "setting": "Setaria; 0.62 kg/hectare", "value": "1 (100)"}, {"measurement": "Effect on weed grasses (evaluation scheme number), Setaria", "setting": "Setaria; 2.5 kg/hectare", "value": "1 (100)"}, {"measurement": "Effect on weed grasses (evaluation scheme number), Lolium", "setting": "Lolium; 0.15 kg/hectare", "value": "5 (85.0 to <90.0)"}, {"measurement": "Effect on weed grasses (evaluation scheme number), Lolium", "setting": "Lolium; 0.62 kg/hectare", "value": "3 (95.0 to <.97.5)"}, {"measurement": "Effect on weed grasses (evaluation scheme number), Lolium", "setting": "Lolium; 2.5 kg/hectare", "value": "2 (97.5 to <100)"}, {"measurement": "dosage sufficient with respect to the comparative compound (90% effect)", "setting": "Avena fatua [1]; applied in the second stage", "value": "about half the dosage"}, {"measurement": "effect on wild oat compared with compound A", "setting": "Avena fatua [1]; emulsion concentrate of 36% strength, in words", "value": "better effect on wild oat than compound A"}, {"measurement": "90% effective dose", "setting": "Avena fatua [1]; stage 1 (3 to 4 leaves with beginning growth of side)", "value": 0.34, "unit": "kg per hectare"}, {"measurement": "Effect on wild oat (evaluation), Avena fatua", "setting": "Avena fatua [1]; stage 1, 0.112 kg/hectare", "value": "6 (75.0 to <85.0)"}, {"measurement": "Effect on wild oat (evaluation), Avena fatua", "setting": "Avena fatua [1]; stage 1, 0.225 kg/hectare", "value": "5 (85.0 to <90.0)"}, {"measurement": "Effect on wild oat (evaluation), Avena fatua", "setting": "Avena fatua [1]; stage 1, 0.45 kg/hectare", "value": "4 (90.0 to <95.0)"}, {"measurement": "Effect on wild oat (evaluation), Avena fatua", "setting": "Avena fatua [1]; stage 1, 0.9 kg/hectare", "value": "3 (95.0 to <.97.5)"}, {"measurement": "90% effective dose", "setting": "Avena fatua [1]; stage 2 (main tillering to terminated tillering)", "value": 0.45, "unit": "kg per hectare"}, {"measurement": "Effect on wild oat (evaluation), Avena fatua", "setting": "Avena fatua [1]; stage 2, 0.112 kg/hectare", "value": "7 (65.0 to <75.0)"}, {"measurement": "Effect on wild oat (evaluation), Avena fatua", "setting": "Avena fatua [1]; stage 2, 0.225 kg/hectare", "value": "6 (75.0 to <85.0)"}, {"measurement": "Effect on wild oat (evaluation), Avena fatua", "setting": "Avena fatua [1]; stage 2, 0.45 kg/hectare", "value": "4 (90.0 to <95.0)"}, {"measurement": "Effect on wild oat (evaluation), Avena fatua", "setting": "Avena fatua [1]; stage 2, 0.9 kg/hectare", "value": "3 (95.0 to <.97.5)"}, {"measurement": "evaluation, spring wheat", "setting": "spring wheat; stage 1, 0.112 kg/hectare", "value": "1 (0)"}, {"measurement": "evaluation, spring wheat", "setting": "spring wheat; stage 1, 0.225 kg/hectare", "value": "1 (0)"}, {"measurement": "evaluation, spring wheat", "setting": "spring wheat; stage 1, 0.45 kg/hectare", "value": "1 (0)"}, {"measurement": "evaluation, spring wheat", "setting": "spring wheat; stage 1, 0.9 kg/hectare", "value": "2 (0 to 2.5)"}, {"measurement": "evaluation, spring wheat", "setting": "spring wheat; stage 2, 0.112 kg/hectare", "value": "1 (0)"}, {"measurement": "evaluation, spring wheat", "setting": "spring wheat; stage 2, 0.225 kg/hectare", "value": "1 (0)"}, {"measurement": "evaluation, spring wheat", "setting": "spring wheat; stage 2, 0.45 kg/hectare", "value": "1 (0)"}, {"measurement": "evaluation, spring wheat", "setting": "spring wheat; stage 2, 0.9 kg/hectare", "value": "2 (0 to 2.5)"}, {"measurement": "Effect on wild oat, Avena fatua, number", "setting": "Avena fatua [2]; 3-leaf stage", "value": "1 (100)"}, {"measurement": "degree of damage % (evaluation by weight), Avena fatua", "setting": "Avena fatua [2]; 3-leaf stage", "value": 100, "unit": "%"}, {"measurement": "Effect on wild oat, Avena fatua, number", "setting": "Avena fatua [2]; start of tillering", "value": "3 to 4"}]}]}
